Source: ChEMBL document CHEMBL2202984, “16-morpholino quaternary ammonium steroidal derivatives as neuromuscular blocking agents: synthesis, biological evaluation and in silico probe of ligand-receptor interaction” (Eur J Med Chem, 2012)
The source made the active and inactive calls. No cut-off for these calls is given here.

How the values were obtained:
[1] = species on record: Mus musculus; test: Inhibition of nAChR-mediated twitch response in mouse hemidiaphragm at IC90 in presence of neostigmine bromide
[2] = species on record: Mus musculus; test: (§1) Inhibition of nAChR-mediated twitch response in mouse hemidiaphragm
[3] = as §1

SMILES	inhibition [1]	IC90 [2] [µM]	IC50 [3] [µM]
CC(=O)O[C@H]1[C@@H]([N+]2(C)CCOCC2)C[C@H]2[C@@H]3CC[C@H]4C[C@@H]([N+](C)(C)Cc5ccccc5)CC[C@]4(C)[C@H]3CC[C@@]21C	inactive	6.38	4.54
C=CC[N+]1([C@H]2C[C@H]3[C@@H]4CC[C@H]5C[C@H](O)[C@@H](N6CCOCC6)C[C@]5(C)[C@H]4CC[C@]3(C)[C@H]2OC(C)=O)CCCC1 [ROCURONIUM BROMIDE]	–	3.53	2.5
C[C@]12CC[C@H]([N+]3(C)CCOCC3)C[C@@H]1CC[C@@H]1[C@@H]2CC[C@]2(C)[C@@H](O)[C@@H]([N+]3(C)CCOCC3)C[C@@H]12	–	–	38.9
C[C@]12CC[C@H]([N+](C)(C)Cc3ccccc3)C[C@@H]1CC[C@@H]1[C@@H]2CC[C@]2(C)[C@@H](O)[C@@H]([N+]3(C)CCOCC3)C[C@@H]12	–	–	18.5
C[C@]12CC[C@H]([N+](C)(C)C)C[C@@H]1CC[C@@H]1[C@@H]2CC[C@]2(C)[C@@H](O)[C@@H]([N+]3(C)CCOCC3)C[C@@H]12	–	–	21.4
CC(=O)O[C@H]1[C@@H]([N+]2(C)CCOCC2)C[C@H]2[C@@H]3CC[C@H]4C[C@H](N5CC[N+](C)(C)CC5)CC[C@]4(C)[C@H]3CC[C@@]21C	–	–	39.1
CC(=O)O[C@H]1C[C@@H]2CC[C@@H]3[C@H](CC[C@@]4(C)[C@H]3C[C@H]([N+]3(C)CCCCC3)[C@@H]4OC(C)=O)[C@@]2(C)C[C@@H]1N1CCCCC1 [VECURONIUM BROMIDE]	–	0.44	0.31
CC(=O)O[C@H]1[C@@H]([N+]2(C)CCOCC2)C[C@H]2[C@@H]3CC[C@H]4C[C@@H]([N+]5(C)CCOCC5)CC[C@]4(C)[C@H]3CC[C@@]21C	–	50.7	33.9
CC(=O)O[C@H]1[C@@H]([N+]2(C)CCOCC2)C[C@H]2[C@@H]3CC[C@H]4C[C@H]([N+]5(C)CCCC5)CC[C@]4(C)[C@H]3CC[C@@]21C	–	–	18.6
C[C@]12CC[C@H]([N+]3(C)CCCC3)C[C@@H]1CC[C@@H]1[C@@H]2CC[C@]2(C)[C@@H](O)[C@@H]([N+]3(C)CCOCC3)C[C@@H]12	–	–	27.6
C[C@]12CC[C@H]([N+](C)(C)c3ccccc3)C[C@@H]1CC[C@@H]1[C@@H]2CC[C@]2(C)[C@@H](O)[C@@H]([N+]3(C)CCOCC3)C[C@@H]12	–	–	16.2
CC(=O)O[C@H]1[C@@H]([N+]2(C)CCOCC2)C[C@H]2[C@@H]3CC[C@H]4C[C@@H]([N+]5(C)CCCCC5)CC[C@]4(C)[C@H]3CC[C@@]21C	inactive	5.46	3.49
CC(=O)O[C@H]1CC[C@@]2(C)[C@@H](CC[C@@H]3[C@@H]2CC[C@@]2(C)[C@H]3C[C@H]([N+]3(C)CCOCC3)[C@@H]2OC(C)=O)C1	–	29.4	19.8
C[C@]12CC[C@H]([N+]3(C)CCCCC3)C[C@@H]1CC[C@@H]1[C@@H]2CC[C@]2(C)[C@@H](O)[C@@H]([N+]3(C)CCOCC3)C[C@@H]12	–	–	13.6
CC(=O)O[C@H]1[C@@H]([N+]2(C)CCOCC2)C[C@H]2[C@@H]3CC[C@H]4C[C@@H]([N+]5(C)CCCC5)CC[C@]4(C)[C@H]3CC[C@@]21C	–	15.7	10.7
CC(=O)O[C@H]1[C@@H]([N+]2(C)CCOCC2)C[C@H]2[C@@H]3CC[C@H]4C[C@@H](N5CC[N+](C)(C)CC5)CC[C@]4(C)[C@H]3CC[C@@]21C	–	18.6	13.1
CC(=O)O[C@H]1[C@@H]([N+]2(C)CCOCC2)C[C@H]2[C@@H]3CC[C@H]4C[C@H]([N+](C)(C)C)CC[C@]4(C)[C@H]3CC[C@@]21C	–	–	17.4
CC(=O)O[C@H]1[C@@H]([N+]2(C)CCOCC2)C[C@H]2[C@@H]3CC[C@H]4C[C@@H]([N+](C)(C)C)CC[C@]4(C)[C@H]3CC[C@@]21C	–	25	16.6
C[C@]12CC[C@H](N3CC[N+](C)(C)CC3)C[C@@H]1CC[C@@H]1[C@@H]2CC[C@]2(C)[C@@H](O)[C@@H]([N+]3(C)CCOCC3)C[C@@H]12	–	–	24.5
CC(=O)O[C@H]1[C@@H]([N+]2(C)CCOCC2)C[C@H]2[C@@H]3CC[C@H]4C[C@@H]([N+](C)(C)c5ccccc5)CC[C@]4(C)[C@H]3CC[C@@]21C	–	18.2	12.7
